Data from patent US11951155B2, “Pea-derived peptide with muscle-building effect and preparation method thereof, and drug and use” (Zhongshi Duqing(Shandong) Biotech Co., Ltd, priority 2022, dated 2024).
“And” between values parts separate entries of the source, which are not always exact repeats. Equal values may be shown once. Ends that are not written are not given here.

Legend:
C2C12 cells = assay: C2C12 cell proliferation assay (CCK-8, OD at 450 nm); format: cell-based; settings: for cell concentration compared with CN group: co-incubated 48 h, 0.4 μg/ml; for OD value, Average value / OD value, Repeated three groups: sample 0.4 μg/ml, OD 450 nm; for OD value, Repeated three groups: single replicates
Method: The C2C12 cells in a logarithmic growth phase were inoculated into a 96-well plate; the cells were divided into 4 groups, namely a blank control group (CN, without any peptide fractions), a pea-derived peptide S1 group, a pea-derived peptide S2 group, and a pea-derived peptide S3 group; each treatment group was set to duplicate 3 wells, with approximately 1,000 cells per well. Except for the blank control group, 0.4 μg/ml pea-derived peptide was added to the cells, and 10 μL of a CCK-8 solution was added separately at 0 h, 12 h, 24 h, 36 h, and 48 h, and mixed well; the cells were incubated in a CO2 incubator at 37° C. for 2 h, an OD value was measured using a microplate reader at 450 nm, and a cell proliferation curve was drawn.
The C2C12 cells in a logarithmic growth phase were inoculated into a 96-well plate; the cells were divided into 6 groups, namely a blank control group (CN, without any peptide fractions), and sample groups including a pea-derived peptide PP1 group (PP1), a pea-derived peptide PP2 group (PP2), a pea-derived peptide PP3 group (PP3), a pea-derived peptide PP4 group (PP4), and a pea-derived peptide PP5 group (PP5). Each treatment group was set to 3 duplicate wells, with approximately 1,000 cells per well. A sample having a concentration of 0.4 μg/ml was added to the cells of the sample groups, and 10 μL of a CCK-8 solution was added separately at 0 h, 12 h, 24 h, 36 h, and 48 h, and mixed well; the cells were incubated in a CO2 incubator at 37° C. for 2 h, an OD value was measured using a microplate reader at 450 nm, and a cell proliferation curve was drawn.

[1] = test system: IGF-1R, cyclinD1, CDK6, p-AMPK in C2C12 cells; assay: Western blot of growth and proliferation-related proteins in C2C12 cells; format: cell-based; settings: skeletal muscle cells treated with one peptide alone
Source text: The C2C12 cells in a logarithmic growth phase were inoculated into a 6-well plate at 1×10^6; the cells were divided into 6 groups, namely a blank control group (CN), and sample groups including a pea-derived peptide PP1 group (PP1), a pea-derived peptide PP2 group (PP2), a pea-derived peptide PP3 group (PP3), a pea-derived peptide PP4 group (PP4), and a pea-derived peptide PP5 group (PP5). Each treatment group was set to duplicate 3 wells, with approximately 1,000,000 cells per well; a sample having a concentration of 0.4 μg/ml was added to the cells of the sample groups, and each treatment group was set to 3 duplicate wells. After co-incubating for 24 h, the cells in different treatment groups were collected, fully lysed, and a total protein was extracted, and a protein concentration was determined using a nucleic acid protein analyzer. The protein sample was mixed with a loading buffer thoroughly, denatured at 100° C. for 10 min, and subjected to SDS-PAGE gel electrophoresis. The program included: 80 V for 30 min; 100 V for 80 min. Membrane transfer was conducted, where the membrane transfer procedure was conducted at 100 V for 90 min. After transferring, the sample was placed in a 5% skimmed milk powder, and sealed in a shaker at room temperature for 1 h. GAPDH antibody (1:2000) and PCNA antibody, AMPK antibody, p-AMPK antibody, IGF-1 antibody (1:1000) were added separately, and allowed to stand at 4° C. overnight. A secondary antibody (1:20000) was added, and incubated at room temperature for 1 h. The membrane was washed 3 times with TBST, and a Pierce-enhanced luminescent agent was added, and exposure was conducted by an automatic exposure machine.

pepsin and trypsin = assay: In vitro digestion test with pepsin and trypsin; format: in vitro ADME; settings: 500 mg/L; pepsin 20 mg/g pH 2.0 37° C. 90 min, then trypsin 40 mg/g pH 7.5 37° C. 150 min; HPLC or LC-MS
Method: A pea-derived peptide aqueous solution and a pea-derived peptide PP2 aqueous solution with a mass concentration of 500 mg/L were prepared separately, pepsin (20 mg/g) was added, a pH value was adjusted to 2.0, and the two aqueous solutions were treated in a water bath at a constant temperature of 37° C. for 90 min. Following the water bath, the pH value was adjusted to 7.5, trypsin (40 mg/g) was added, and the two aqueous solutions were treated in the water bath at a constant temperature of 37° C. for 150 min. Following the water bath, the two solutions were placed in a 95° C. water bath for 5 min to inactivate the enzyme. The samples were freeze-dried and analyzed by HPLC to compare changes in the liquid chromatograms before and after digestion. Also provided were undigested pea-derived peptide and pea-derived peptide digested only by pepsin but not by trypsin.
Pea-derived peptide PP2 was digested in vitro according to the method of Example 4.

Row | Substance | cell concentration compared with CN group (C2C12 cells) | OD value, Average value (C2C12 cells; treatment time 0 h) | OD value, Repeated three groups (C2C12 cells; treatment time 0 h) | OD value, Average value (C2C12 cells; treatment time 12 h) | OD value, Repeated three groups (C2C12 cells; treatment time 12 h) | OD value, Average value (C2C12 cells; treatment time 24 h) | OD value, Repeated three groups (C2C12 cells; treatment time 24 h) | OD value, Average value (C2C12 cells; treatment time 36 h) | OD value, Repeated three groups (C2C12 cells; treatment time 36 h) | OD value, Average value (C2C12 cells; treatment time 48 h) | OD value, Repeated three groups (C2C12 cells; treatment time 48 h) | expression of IGF-1R, cyclinD1, CDK6 and p-AMPK [1] | stability after digestion by pepsin and trypsin (pepsin and trypsin)
1 | LLYVIR | increases significantly | 0.38 | 0.36 and 0.52 and 0.27 | 0.50 | 0.42 and 0.51 and 0.56 | 1.34 | 1.08 and 1.62 and 1.32 | 1.84 | 1.95 and 1.83 and 1.74 | 2.11 | 2.07 and 2.32 and 1.95 | significantly increase expression | 
2 | TNYEEIEKVLL | increases significantly | 0.33 | 0.41 and 0.37 and 0.22 | 0.56 | 0.54 and 0.45 and 0.68 | 1.33 | 1.31 and 1.06 and 1.62 | 1.86 | 2.03 and 1.67 and 1.89 | 2.09 | 1.87 and 2.11 and 2.28 | significantly increase expression | 
3 | EGSLLLPH | increases significantly | 0.35 | 0.28 and 0.35 and 0.41 | 0.53 | 0.52 and 0.66 and 0.42 | 1.26 | 1.24 and 1.07 and 1.48 | 1.73 | 1.77 and 1.62 and 1.81 | 1.95 | 1.96 and 1.78 and 2.10 | significantly increase expression | 
4 | LDLPVL [PP2, Leu-Asp-Leu-Pro-Val-Leu] |  |  |  |  |  |  |  |  |  |  |  |  | not digested and degraded by the pepsin and trypsin
5 | NTNYEEIEKVL | increases significantly | 0.36 | 0.44 and 0.27 and 0.36 | 0.557 | 0.43 and 0.53 and 0.71 | 1.42 | 1.41 and 1.66 and 1.19 | 1.88 | 1.72 and 2.06 and 1.86 | 2.12 | 1.98 and 2.32 and 2.05 | significantly increase expression | 
